Data on twelve compounds can be found in patent US20260070945A1, “MACROCYCLIC IMMUNOMODULATORS” (Bristol-Myers Squibb Company, priority 2022, published 2026).

*1 amine or outer side, *2 acyl side, *3 side chain or, on linkers, in order; H or OH if unused. Where a SMILES comes first, the peptide text is derived from it. Bridges are numbered along the chain shown (N, C = ends). [ ]: non-standard residue; d: D form. The star is where a group is joined. ξ: configuration not given here. Phe(3-CF3) = N[C@@H](Cc1cccc(C(F)(F)F)c1)C(=O)O; Phe(4-COOH) = N[C@@H](Cc1ccc(C(=O)O)cc1)C(=O)O; Bip = N[C@@H](Cc1ccc(-c2ccccc2)cc1)C(=O)O; NH(CH2)14COOH = O=C(O)CCCCCCCCCCCCCCN*; Phe(3-Me) = Cc1cccc(C[C@H](N)C(=O)O)c1; γGlu = O=C(O)[C@H](CCC(=O)[*:2])N[*:1]; His(π-Me) = Cn1cncc1C[C@H](N)C(=O)O; Val(3-OH) = CC(C)(O)[C@H](N)C(=O)O; mTyr = N[C@@H](Cc1cccc(O)c1)C(=O)O; 4Pal = N[C@@H](Cc1ccncc1)C(=O)O; 3Thi = N[C@@H](Cc1ccsc1)C(=O)O; Aad = N[C@@H](CCCC(=O)O)C(=O)O; Cha = N[C@@H](CC1CCCCC1)C(=O)O; Cit = NC(=O)NCCC[C@H](N)C(=O)O; Ile(3ξ) = CCC(C)[C@H](N)C(=O)O; Thr(3ξ) = CC(O)[C@H](N)C(=O)O; 3Abz = Nc1cccc(C(=O)O)c1; Carboxymethyl = O=C(O)C*; NMeA = CN[C@@H](C)C(=O)O; Orn = NCCC[C@H](N)C(=O)O; Aun = NCCCCCCCCCCC(=O)O; Dab = NCC[C@H](N)C(=O)O; Dap = NC[C@H](N)C(=O)O; AEEA = NCCOCCOCC(=O)O; Propargyl = C#CC*

The target in the first experiment is T1, PD-1/PD-L1 interaction (PE-labeled human PD-L1-Ig binding to Jurkat cell line over-expressing human PD-1) (Homo sapiens, UniProt Q15116).
T1 construct: expressed in transfected cells; host or cells: Jurkat
T1 sequence (Q15116 25-288): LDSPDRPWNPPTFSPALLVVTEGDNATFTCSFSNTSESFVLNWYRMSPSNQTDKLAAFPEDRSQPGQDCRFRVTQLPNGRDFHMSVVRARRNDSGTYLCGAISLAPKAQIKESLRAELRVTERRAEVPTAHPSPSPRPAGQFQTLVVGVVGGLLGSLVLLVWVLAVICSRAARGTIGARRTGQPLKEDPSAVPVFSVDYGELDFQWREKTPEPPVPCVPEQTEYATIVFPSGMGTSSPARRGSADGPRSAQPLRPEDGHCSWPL
Kind of experiment: Jurkat-PD-1 Cell Binding High-Content Screening Assay (CBA). Particulars: Jurkat-hPD-1 cells, PE-labeled PD-L1-Ig 20 nM final; read-out: Jurkat HPD1 PDL1 IC50. The gist of the method:
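Jurkat cells overexpressing human PD-1 (8×10^3/well, DMEM + 10% FCS) preincubated with compound 2 h at 37 °C, then PE-labelled human PD-L1-Ig (20 nM final) for 1 h. Cells fixed in paraformaldehyde with Hoechst 33342; bound PD-L1 quantified by high-content imaging.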
For orientation: IC50 means the concentration needed to halve the response being measured. For the compound `CCC(C)[C@@H]1NC(=O)[C@H](Cc2ccc(-c3ccccc3)cc2)NC(=O)[C@H](CC(C)C)NC(=O)[C@H](Cc2cccc(C)c2)NC(=O)[C@H](CC(=O)O)NC(=O)[C@H](Cc2ccc(OCC(=O)O)cc2)NC(=O)[C@H](Cc2ccc(OCC(=O)O)cc2)NC(=O)CSC[C@@H](C(=O)NCCOCCOCC(=O)N[C@@H](CCC(=O)NCCCCCCCCCCC(=O)O)C(=O)O)NC(=O)[C@H](CO)NC(=O)[C@H](C(C)C)NC(=O)[C@H](CC(C)C)NC(=O)[C@H](CCN)NC(=O)[C@@H](CC(C)C)NC(=O)[C@H](C)N(C)C1=O` (stereo partly drawn) [Example 2043] ({CH2CO}-Y(Carboxymethyl)Y(Carboxymethyl)D[Phe(3-Me)]L[Bip][Ile(3ξ)][NMeA][dL][Dab]LVSC[AEEA][γGlu][Aun]-OH; thioether N-14), the IC50 worked out at 17.4 nM. Regarding `Cc1cccc(C[C@@H]2NC(=O)[C@H](CC(=O)O)NC(=O)[C@H](Cc3ccc(OCC(=O)O)cc3)NC(=O)[C@H]([C@@H](C)O)NC(=O)CSC[C@@H](C(=O)N[C@H](CC(N)=O)C(=O)NCCCCCCCCCCC(=O)O)NC(=O)[C@H](CCC(=O)O)NC(=O)[C@H](C(C)(C)O)NC(=O)[C@H](CC3CCCCC3)NC(=O)[C@H](CCN)NC(=O)[C@@H](CC(C)C)NC(=O)[C@H](C)N(C)C(=O)[C@H](Cc3ccc(OCC(=O)O)cc3)NC(=O)[C@H](Cc3ccc(-c4ccccc4)cc3)NC(=O)[C@H](Cc3ccc(OCC(=O)O)cc3)NC2=O)c1` [Example 1420] ({CH2CO}-TY(Carboxymethyl)D[Phe(3-Me)]Y(Carboxymethyl)[Bip]Y(Carboxymethyl)[NMeA][dL][Dab][Cha][Val(3-OH)]EC[dN][Aun]-OH; thioether N-14), the IC50 worked out at 116 nM. With `CC(C)C[C@@H]1NC(=O)[C@H](Cc2c[nH]c3ccccc23)NC(=O)[C@H](CC(=O)O)NC(=O)[C@H](Cc2ccc(C(=O)O)cc2)NC(=O)[C@H](Cc2ccc(OCC(=O)O)cc2)NC(=O)CSC[C@@H](C(=O)N[C@@H](CCCCN)C(=O)NCCCCCCCCCCC(=O)O)NC(=O)[C@H](CCCNC(N)=O)NC(=O)[C@H](C(C)C)NC(=O)[C@H](CC2CCCCC2)NC(=O)[C@H](CCN)NC(=O)[C@@H](CC(C)C)NC(=O)[C@H](C)N(C)C(=O)[C@H](C(C)C)NC(=O)[C@H](Cc2ccc(-c3ccccc3)cc2)NC1=O` [Example 1099] ({CH2CO}-Y(Carboxymethyl)[Phe(4-COOH)]DWL[Bip]V[NMeA][dL][Dab][Cha]V[Cit]CK[Aun]-OH; thioether N-14), the IC50 worked out at 9.8 nM. `Cc1cccc(C[C@@H]2NC(=O)[C@H](CC(=O)O)NC(=O)[C@H](Cc3ccc(OCC(=O)O)cc3)NC(=O)[C@H](CCCC(=O)O)NC(=O)CSC[C@@H](C(=O)N[C@@H](CCN)C(=O)NCCCCCCCCCCC(=O)O)NC(=O)[C@H](CO)NC(=O)[C@H](C(C)C)NC(=O)[C@H](CC3CCCCC3)NC(=O)[C@H](CCN)NC(=O)[C@@H](CC(C)C)NC(=O)[C@H](C)N(C)C(=O)[C@H](Cc3ccc(O)cc3)NC(=O)[C@H](Cc3ccc(-c4ccccc4)cc3)NC(=O)[C@H](Cc3ccc(OCC(=O)O)cc3)NC2=O)c1` [Example 1280] ({CH2CO}-[Aad]Y(Carboxymethyl)D[Phe(3-Me)]Y(Carboxymethyl)[Bip]Y[NMeA][dL][Dab][Cha]VSC[Dab][Aun]-OH; thioether N-14): the IC50 is 29.3 nM.

For `CC(C)C[C@H]1NC(=O)[C@H](C)N(C)C(=O)[C@H](Cc2ccc(OCC(=O)O)cc2)NC(=O)[C@H](Cc2ccc(-c3ccccc3)cc2)NC(=O)[C@H](Cc2ccc(OCC(=O)O)cc2)NC(=O)[C@H](Cc2c[nH]c3ccccc23)NC(=O)[C@H](CC(=O)O)NC(=O)[C@H](Cc2ccc(OCC(=O)O)cc2)NC(=O)[C@H]([C@@H](C)O)NC(=O)CSC[C@@H](C(=O)N[C@@H](CCN)C(=O)NCCOCCOCC(=O)NCCCCCCCCCCC(=O)O)NC(=O)[C@H](CC(N)=O)NC(=O)[C@H](C(C)C)NC(=O)[C@H](CC2CCCCC2)NC(=O)[C@H](CCN)NC1=O` [Example 1393] ({CH2CO}-TY(Carboxymethyl)DWY(Carboxymethyl)[Bip]Y(Carboxymethyl)[NMeA][dL][Dab][Cha]VNC[Dab][AEEA][Aun]-OH; thioether N-14), the IC50 is 33.1 nM. Take `Cc1cccc(C[C@@H]2NC(=O)[C@H](CC(=O)O)NC(=O)[C@H](Cc3ccc(OCC(=O)O)cc3)NC(=O)[C@H](Cc3cncn3C)NC(=O)CSC[C@@H](C(=O)N[C@@H](CCN)C(=O)NCCCCCCCCCCC(=O)O)NC(=O)[C@H](CO)NC(=O)[C@H](C(C)C)NC(=O)[C@H](CC3CCCCC3)NC(=O)[C@H](CCN)NC(=O)[C@@H](CC(C)C)NC(=O)[C@H](C)N(C)C(=O)[C@H](Cc3ccc(O)cc3)NC(=O)[C@H](Cc3ccc(-c4ccccc4)cc3)NC(=O)[C@H](Cc3ccc(OCC(=O)O)cc3)NC2=O)c1` [Example 1281] ({CH2CO}-[His(π-Me)]Y(Carboxymethyl)D[Phe(3-Me)]Y(Carboxymethyl)[Bip]Y[NMeA][dL][Dab][Cha]VSC[Dab][Aun]-OH; thioether N-14): the IC50 came out at 22.1 nM. Same read-out and setting: for `CC(C)C[C@@H]1NC(=O)[C@H](Cc2c[nH]c3ccccc23)NC(=O)[C@H](CC(=O)O)NC(=O)[C@H](Cc2ccncc2)NC(=O)[C@H](Cc2ccc(OCC(=O)O)cc2)NC(=O)CSC[C@@H](C(=O)Nc2cccc(C(=O)NCCCCCCCCCCC(=O)O)c2)NC(=O)[C@H](CN)NC(=O)[C@H](C(C)C)NC(=O)[C@H](CC2CCCCC2)NC(=O)[C@H](CCN)NC(=O)[C@@H](CC(C)C)NC(=O)[C@H](C)N(C)C(=O)[C@H](C(C)C)NC(=O)[C@H](Cc2ccc(-c3ccccc3)cc2)NC1=O` [Example 1216] ({CH2CO}-Y(Carboxymethyl)[4Pal]DWL[Bip]V[NMeA][dL][Dab][Cha]V[Dap]C[3Abz][Aun]-OH; thioether N-14) the value was 265 nM; for `CC(C)C[C@H]1NC(=O)[C@H](C)N(C)C(=O)[C@H](Cc2ccc(O)cc2)NC(=O)[C@H](Cc2ccc(-c3ccccc3)cc2)NC(=O)[C@H](Cc2ccc(O)cc2)NC(=O)[C@H](Cc2cccc(O)c2)NC(=O)[C@H](CC(=O)O)NC(=O)[C@H](Cc2ccc(OCC(=O)O)cc2)NC(=O)[C@H](CN)NC(=O)CSC[C@@H](C(=O)N[C@@H](CCN)C(=O)NCCCCCCCCCCC(=O)O)NC(=O)[C@H](CCCN)NC(=O)[C@H](C(C)C)NC(=O)[C@H](CC2CCCCC2)NC(=O)[C@H](CCN)NC1=O` [Example 1257] ({CH2CO}-[Dap]Y(Carboxymethyl)D[mTyr]Y[Bip]Y[NMeA][dL][Dab][Cha]V[Orn]C[Dab][Aun]-OH; thioether N-14), 226 nM; for `C#CCOC[C@@H]1NC(=O)[C@H](C(C)C)NC(=O)[C@H](CC2CCCCC2)NC(=O)[C@H](CCN)NC(=O)[C@@H](CC(C)C)NC(=O)[C@H](C)N(C)C(=O)[C@H](Cc2ccc(OCC(=O)O)cc2)NC(=O)[C@H](Cc2ccc(-c3ccccc3)cc2)NC(=O)[C@H](Cc2ccc(OCC(=O)O)cc2)NC(=O)[C@H](Cc2c[nH]c3ccccc23)NC(=O)[C@H](CC(=O)O)NC(=O)[C@H](Cc2ccncc2)NC(=O)[C@H](Cc2ccc(OCC(=O)O)cc2)NC(=O)CSC[C@@H](C(=O)N[C@@H](CCN)C(=O)NCCOCCOCC(=O)NCCCCCCCCCCC(=O)O)NC1=O` [Example 1103] ({CH2CO}-Y(Carboxymethyl)[4Pal]DWY(Carboxymethyl)[Bip]Y(Carboxymethyl)[NMeA][dL][Dab][Cha]VS(Propargyl)C[Dab][AEEA][Aun]-OH; thioether N-14), 19 nM.

Still in this experiment, the particulars now being: PE-labeled PD-L1-Ig 20 nM final, Jurkat-hPD-1 cells; read-out: Jurkat HPD1 PDL1 IC50.
Regarding `CC(C)C[C@H]1NC(=O)[C@H](C)N(C)C(=O)[C@H](Cc2ccc(OCC(=O)O)cc2)NC(=O)[C@H](Cc2ccc(-c3ccccc3)cc2)NC(=O)[C@H](Cc2ccc(C(=O)O)cc2)NC(=O)[C@H](Cc2cccc(C(F)(F)F)c2)NC(=O)[C@H](CC(=O)O)NC(=O)[C@H](Cc2ccc(OCC(=O)O)cc2)NC(=O)[C@H](C(C)O)NC(=O)CSC[C@@H](C(=O)N[C@@H](CCN)C(=O)NCCCCCCCCCCCCCCC(=O)O)NC(=O)[C@H](CCC(=O)O)NC(=O)[C@H](C(C)C)NC(=O)[C@H](CC2CCCCC2)NC(=O)[C@H](CCN)NC1=O` (stereo partly drawn) [Example 2602] ({CH2CO}-[Thr(3ξ)]Y(Carboxymethyl)D[Phe(3-CF3)][Phe(4-COOH)][Bip]Y(Carboxymethyl)[NMeA][dL][Dab][Cha]VEC[Dab]-{NH(CH2)14COOH}; thioether N-14), the IC50 is 192 nM. Same read-out and setting: for `CCC(C)[C@@H]1NC(=O)[C@H](Cc2ccc(-c3ccccc3)cc2)NC(=O)[C@H](CC(C)C)NC(=O)[C@H](Cc2c[nH]c3ccccc23)NC(=O)[C@H](CC(=O)O)NC(=O)[C@H](Cc2ccc(OCC(=O)O)cc2)NC(=O)[C@H](Cc2ccsc2)NC(=O)CSC[C@@H](C(=O)N[C@@H](CCN)C(=O)NCCOCCOCC(=O)NCCCCCCCCCCC(=O)O)NC(=O)[C@H](CCC(=O)O)NC(=O)[C@H](C(C)(C)O)NC(=O)[C@H](CC2CCCCC2)NC(=O)[C@H](CCN)NC(=O)[C@@H](CC(C)C)NC(=O)[C@H](C)N(C)C1=O` (stereo partly drawn) [Example 2510] ({CH2CO}-[3Thi]Y(Carboxymethyl)DWL[Bip][Ile(3ξ)][NMeA][dL][Dab][Cha][Val(3-OH)]EC[Dab][AEEA][Aun]-OH; thioether N-14) the value was 18.1 nM; for `CCC(C)[C@@H]1NC(=O)[C@H](Cc2ccc(-c3ccccc3)cc2)NC(=O)[C@H](CC(C)C)NC(=O)[C@H](Cc2c[nH]c3ccccc23)NC(=O)[C@H](CC(=O)O)NC(=O)[C@H](Cc2ccc(OCC(=O)O)cc2)NC(=O)[C@H](Cc2ccc(OCC(=O)O)cc2)NC(=O)CSC[C@@H](C(=O)N[C@@H](CCN)C(=O)NCCOCCOCC(=O)NCCCCCCCCCCC(=O)O)NC(=O)[C@H](Cc2cnc[nH]2)NC(=O)[C@H](C(C)(C)O)NC(=O)[C@H](CC2CCCCC2)NC(=O)[C@H](CCN)NC(=O)[C@@H](CC(C)C)NC(=O)[C@H](C)N(C)C1=O` (stereo partly drawn) [Example 2515] ({CH2CO}-Y(Carboxymethyl)Y(Carboxymethyl)DWL[Bip][Ile(3ξ)][NMeA][dL][Dab][Cha][Val(3-OH)]HC[Dab][AEEA][Aun]-OH; thioether N-14), 3.1 nM.
